Where a SMILES comes first, the peptide text is derived from it. [ ]: non-standard residue; d: D form. Aib = CC(C)(N)C(=O)O

Series [1] deals with Mouse monocyte/macrophage cell line, RAW 264.7. Briefly: Cholesterol efflux assay (3H-cholesterol, macrophage cell line). The following applies: RAW 264.7, 4 hrs incubation, 0.1% human serum albumin, ABCA1-mediated efflux. In kind it is cell-based.
Series [2] can be described thus: Pharmacokinetics in mini-pigs after i.v. administration. The following applies: female, Göttingen, minipig, plasma, iv, 5 nmol/kg. An excerpt:
The aim of the study is to assess the pharmacokinetic properties of the compounds of the invention, in mini-pigs.
Göttingen mini-pigs female, 15-20 kg, purchased from Ellegaard Mini-pigs, Denmark, were housed in the Animal Unit, Novo Nordisk A/S and were kept and handled according to normal procedure in the Animal Unit. After minimum 2 weeks of acclimatization two permanent central venous catheters were implemented in vena cava caudalis in each animal. After surgery the animals were in their normal individual pens during the pharmacokinetic experiments.
Intravenous injections were given through the central short catheter, which was flushed with min 10 ml of sterile saline post administration. The test substance was dosed at 5 nmol/kg, N=3, in a volume of 0.05 ml/kg.
On day 1 the catheters are coupled to extension tubes, which will be removed at the end of day 1.
Samples were kept on wet ice until centrifugation (10 min, 4° C., 1942 g). Afterwards, plasma (min. 100 μl) was transferred immediately to Micronic tubes and kept at −20° C. until analysis. The plasma samples were analysed by an immunoaasay described below.
The plasma concentrations of the peptides with intact N-terminus were determined using a Luminescence Oxygen Chanelling Immuno-assay (LOCI). The donor beads were coated with streptavidin, while acceptor beads were conjugated with a monoclonal antibody recognizing a mid-/C-terminal epitope of the peptide. The other monoclonal antibody, specific for the N-terminus, was biotinylated. The three reactants were combined with the analyte and formed a two-sited immuno-complex. Illumination of the complex released singlet oxygen atoms from the donor beads, which were channeled into the acceptor beads and triggered chemi-luminescence which was measured in an Envision plate reader. The amount of light was proportional to the concentration of the compound.
Plasma concentration-time profiles was analysed by a non-compartmental pharmacokinetics analysis using Phoenix (Pharsight Inc., Mountain View, Calif., USA). Calculations were performed using individual concentration-time values from each animal.

[3] abbreviates: T1/2 Mean Value, Göttingen mini-pigs, N=3.

For `CC[C@H](C)[C@H](NC(=O)[C@H](Cc1ccccc1)NC(=O)[C@H](CCC(=O)O)NC(=O)[C@H](CCCCN)NC(=O)[C@@H](NC(=O)[C@H](C)NC(=O)[C@H](CCC(=O)O)NC(=O)CNC(=O)[C@H](CCC(=O)O)NC(=O)[C@H](CC(C)C)NC(=O)[C@H](Cc1ccc(O)cc1)NC(=O)[C@H](CO)NC(=O)[C@H](CO)NC(=O)[C@@H](NC(=O)[C@H](CC(=O)O)NC(=O)[C@H](CO)NC(=O)[C@@H](NC(=O)[C@H](Cc1ccccc1)NC(=O)[C@@H](NC(=O)CNC(=O)[C@H](CCC(=O)O)NC(=O)C(C)(C)NC(=O)[C@@H](N)Cc1c[nH]cn1)[C@@H](C)O)[C@@H](C)O)C(C)C)C(C)C)C(=O)N[C@@H](C)C(=O)N[C@@H](Cc1c[nH]c2ccccc12)C(=O)N[C@@H](CC(C)C)C(=O)N[C@H](C(=O)N[C@@H](CCC(=O)O)C(=O)N[C@@H](CCCCN)C(=O)N[C@H](C(=O)N[C@@H](CCCCN)C(=O)N[C@@H](CCC(=O)O)C(=O)N[C@@H](Cc1ccccc1)C(=O)N[C@@H](CC(C)C)C(N)=O)C(C)C)C(C)C` [Compound 6, [Aib8,Glu23,Val25,Glu34,Lys35,Val36,Lys37]-GLP-1-(7-37)-peptidyl-Glu-Phe-Leu amide] (H-H[Aib]EGTFTSDVSSYLEGEAVKEFIAWLVEKVKEFL-NH2), the “4 h Cholesterol Efflux Emax” value in series [1] was determined as 92%. In series [2], the C0 was 89.5 nM; the Vd (as a rule, a proportionality between amount in the body and measured concentration, not a real space) was found to be 0.0904 L/kg; the clearance (in general, a measure of how efficiently the substance is removed, as volume per time) was 1.64 mL/h/kg. In addition, the half-life – broadly, the time in which the quantity being followed falls by half – in series [2] (T1/2, mini-pigs) is 38.7 h. The compound also gave a half-life in series [2] (setting [3]) of 38.7 h.

For the compound `CC[C@H](C)[C@H](NC(=O)[C@H](Cc1ccccc1)NC(=O)[C@H](CCC(=O)O)NC(=O)[C@H](CCCCN)NC(=O)[C@@H](NC(=O)[C@H](C)NC(=O)[C@H](CCC(=O)O)NC(=O)CNC(=O)[C@H](CCC(=O)O)NC(=O)[C@H](CC(C)C)NC(=O)[C@H](Cc1ccc(O)cc1)NC(=O)[C@H](CO)NC(=O)[C@H](CO)NC(=O)[C@@H](NC(=O)[C@H](CC(=O)O)NC(=O)[C@H](CO)NC(=O)[C@@H](NC(=O)[C@H](Cc1ccccc1)NC(=O)[C@@H](NC(=O)CNC(=O)[C@H](CCC(=O)O)NC(=O)C(C)(C)NC(=O)[C@@H](N)Cc1c[nH]cn1)[C@@H](C)O)[C@@H](C)O)C(C)C)C(C)C)C(=O)N[C@@H](C)C(=O)N[C@@H](Cc1c[nH]c2ccccc12)C(=O)N[C@@H](CC(C)C)C(=O)N[C@H](C(=O)N[C@@H](CCC(=O)O)C(=O)N[C@@H](CCCCN)C(=O)NC(C)(C)C(=O)N[C@@H](CCCCN)C(=O)N[C@@H](CCC(=O)O)C(=O)N[C@@H](Cc1ccccc1)C(=O)N[C@@H](CC(C)C)C(=O)N[C@@H](CCC(=O)O)C(=O)N[C@@H](CCCCN)C(=O)N[C@H](C(=O)N[C@@H](CCCCN)C(=O)N[C@@H](CCC(=O)O)C(=O)N[C@@H](Cc1ccccc1)C(N)=O)C(C)C)C(C)C` [Compound 61], the “4 h Cholesterol Efflux Emax” value in series [1] was 82%. In series [2], this compound gave a C0 of 53.3 nM, a Vd of 0.27 L/kg and a clearance of 5.9 mL/h/kg. In series [2] (setting [3]), this compound had a half-life of 31.8 h.

These data come from patent publication US20150344540A1, “NOVEL GLP-1 RECEPTOR AGONISTS WITH CHOLESTEROL EFFLUX ACTIVITY” (NOVO NORDISK A/S, priority 2012, published 2015).
